Where a name gives a salt, the structure may show the parent alone.
molecular target: T1, human 5-HT2A receptor (Homo sapiens, UniProt P28223); experiment: 5-HT2A receptor affinity assay: competition with 3H-labeled LSD on membranes of transfected CHO cells; conditions: displacement of 3H-LSD; membranes from transfected CHO cell line stably expressing the human 5-HT2A receptor; non-specific binding defined with mianserin (5 μM)
T1 construct: expressed in transfected cells
Method: The 5-HT2A receptor affinity of compounds in the Examples was determined in competition experiments, where the ability of each compound in serial dilution to displace ^3H-labeled lysergic diethyl amide (LSD), bound to membranes prepared from a transfected CHO cell line stably expressing the human 5-HT2A receptor protein, was measured after rapid filtration through glass fiber filters. Non-specific binding was defined using mianserin (5 μM). The 5-HT2A receptor affinity values are expressed as Ki values.

T1 sequence (P28223 whole entry): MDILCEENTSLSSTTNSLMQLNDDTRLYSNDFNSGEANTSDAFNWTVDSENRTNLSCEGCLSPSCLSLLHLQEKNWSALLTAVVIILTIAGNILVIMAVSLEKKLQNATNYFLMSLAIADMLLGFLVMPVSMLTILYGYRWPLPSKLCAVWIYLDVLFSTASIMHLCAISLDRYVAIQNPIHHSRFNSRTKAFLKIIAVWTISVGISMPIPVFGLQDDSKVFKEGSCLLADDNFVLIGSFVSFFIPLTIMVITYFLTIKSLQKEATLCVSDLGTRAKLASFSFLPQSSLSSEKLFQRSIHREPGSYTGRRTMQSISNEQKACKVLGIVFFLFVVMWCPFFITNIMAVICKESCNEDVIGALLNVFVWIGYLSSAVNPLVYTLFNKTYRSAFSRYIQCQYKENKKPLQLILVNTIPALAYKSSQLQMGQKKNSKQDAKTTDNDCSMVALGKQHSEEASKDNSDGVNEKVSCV

Ki [nM] | SMILES
2.5 | CCCCOc1cccc(OCCn2ccnc(N3CCNCC3)c2=O)c1 [Example 11, 1-[2-(3-n-Butyloxyphenoxy)ethyl]-3-(1-piperazinyl)-2(1H)-pyrazinone]
4.4 | O=c1c(N2CCNCC2)nccn1CCOc1ccc(Oc2ccccc2)cc1 [Example 31, 1-[2-{4-Phenoxy-(phenoxy)}ethyl]-3-(1-piperazinyl)-2(1H)-pyrazinone]
8 | O=c1c(N2CCNCC2)nccn1CCOc1ccc(C(F)(F)F)cc1 [Example 29, 1-[2-(4-Trifluoromethylphenoxy)ethyl]-3-(1-piperazinyl)-2(1H)-pyrazinone]
2.2 | O=c1c(N2CCNCC2)nccn1CCOc1cc(F)c(F)cc1F [Example 3, 3-(1-Piperazinyl)-1-[2-(2,4,5-trifluorophenoxy)ethyl]-2(1H)-pyrazinone]
13 | O=c1c(N2CCNCC2)nccn1CCOc1cccc([N+](=O)[O-])c1 [Example 23, 1-[2-(3-Nitrophenoxy)ethyl]-3-(1-piperazinyl)-2(1H)-pyrazinone]
152 | O=c1ccc2ccc(OCCn3ccnc(N4CCNCC4)c3=O)cc2o1 [Example 2, 1-{2-[(2-Oxo-2H-chromen-7-yl)oxy]ethyl}-3-(1-piperazinyl)-2(1H)-pyrazinone]
1.4 | O=c1c(N2CCN(Cc3ccccc3)CC2)nccn1CCOc1cc(F)c(F)cc1F [Example 63, 3-(4-Benzylpiperazin-1-yl)-1-[2-(2,4,5-trifluorophenoxy)ethyl]pyrazin-2(1H)-one]
3.6 | O=C(c1ccccc1)c1cccc(OCCn2ccnc(N3CCNCC3)c2=O)c1 [Example 24, 1-[2-(3-Benzoylphenoxy)ethyl]-3-(1-piperazinyl)-2(1H)-pyrazinone]
0.15 | O=c1c(N2CCN(CCc3ccccc3)CC2)nccn1CCOc1cc(F)c(F)cc1F [Example 62, 3-[4-(2-Phenylethyl)piperazin-1-yl-]1-[2-(2,4,5-trifluorophenoxy)ethyl]pyrazin-2(1H)-one]
29 | O=c1c(N2CCNCC2)nccn1CCOc1ccc(F)c(F)c1F [Example 13, 3-(1-Piperazinyl)-1-[2-(2,3,4-trifluorophenoxy)ethyl]-2(1H)-pyrazinone]

system: not given; experiment: not given; conditions: not given

melting point | SMILES
180 to 191 °C | CN(C)c1cccc(OCCn2ccnc(N3CCNCC3)c2=O)c1 (as salt: fumarate) [Example 20, 1-{2-[3-(N,N-Dimethylamino)phenoxy]ethyl}-3-(1-piperazinyl)-pyrazin-2(1H)-one]
193 to 195 °C | O=c1c(N2CCNCC2)nccn1CCOc1cc(F)c(F)cc1F (as salt: hydrochloride) [Example 3, 3-(1-Piperazinyl)-1-[2-(2,4,5-trifluorophenoxy)ethyl]-2(1H)-pyrazinone]
113.4 to 116.6 °C (dec.) | O=c1c(N2CCNCC2)nccn1CCCCOc1cc(F)c(F)cc1F (as salt: trifluoroacetate) [Example 58, 1-[4-(2,4,5-Trifluorophenoxy)butyl]-3-(1-piperazinyl)-2(1H)-pyrazinone]
100.3 to 100.9 °C (dec.) | O=c1c(N2CCNCC2)nccn1CCCOc1cc(F)c(F)cc1F (as salt: trifluoroacetate) [Example 59, 1-[3-(2,4,5-Trifluorophenoxy)propyl]-3-(1-piperazinyl)-2(1H)-pyrazinone]
137 to 139 °C | CC(c1ccccc1)N1CCN(c2nccn(CCOc3cc(F)c(F)cc3F)c2=O)CC1 (racemic) (as salt: hydrochloride) [Example 60, 3-[4-(1-Phenylethyl)piperazin-1-yl]-1-[2-(2,4,5-trifluorophenoxy)ethyl]pyrazin-2(1H)-one]
49 to 52 °C | N#Cc1cccc(OCCn2ccnc(N3CCNCC3)c2=O)c1 [Example 7, 1-[2-(3-Cyanophenoxy)ethyl]-3-(1-piperazinyl)-2(1H)-pyrazinone]
105 to 108 °C | O=c1c(N2CCNCC2)nccn1CCOc1ccc([N+](=O)[O-])cc1F (as salt: hydrochloride) [Example 1, 1-[2-(2-Fluoro-4-nitrophenoxy)ethyl]-3-(1-piperazinyl)-2(1H)-pyrazinone]
171 °C | O=c1c(N2CCNCC2)nccn1CCOc1cccc([N+](=O)[O-])c1 [Example 23, 1-[2-(3-Nitrophenoxy)ethyl]-3-(1-piperazinyl)-2(1H)-pyrazinone]
196 to 198 °C (dec.) | O=c1c(N2CCNCC2)nccn1CCOc1c(F)c(F)cc(F)c1F (as salt: hydrochloride) [Example 4, 3-(1-Piperazinyl)-1-[2-(2,3,5,6-tetrafluorophenoxy)ethyl]-2(1H)-pyrazinone]
158 to 160 °C | C=CCc1ccc(OCCn2ccnc(N3CCNCC3)c2=O)c(OC)c1 (as salt: maleate) [Example 65, 1-[2-(4-Allyl-2-methoxyphenoxy)ethyl]-3-piperazin-1-ylpyrazin-2(1H)-one]
174 to 176 °C | O=c1c(N2CCNCC2)nccn1CCOc1noc2ccccc12 (as salt: hydrochloride) [Example 9, 1-[2-(1,2-Benzisoxazol-3-yloxy)ethyl]-3-(1-piperazinyl)-2(1H)-pyrazinone]
69 to 70 °C | O=C(c1ccccc1)c1cccc(OCCn2ccnc(N3CCNCC3)c2=O)c1 [Example 24, 1-[2-(3-Benzoylphenoxy)ethyl]-3-(1-piperazinyl)-2(1H)-pyrazinone]
214 to 214.5 °C | O=c1c(N2CCN(Cc3ccccc3)CC2)nccn1CCOc1cc(F)c(F)cc1F (as salt: hydrochloride) [Example 63, 3-(4-Benzylpiperazin-1-yl)-1-[2-(2,4,5-trifluorophenoxy)ethyl]pyrazin-2(1H)-one]
119 to 121 °C | O=c1c(N2CCNCC2)nccn1CCOc1cc(F)cc(F)c1 [Example 25, 1-[2-(3,5-Difluorophenoxy)ethyl]-3-(1-piperazinyl)-2(1H)-pyrazinone]
